Test system: MDA-MB-231 multicell spheroids, viability (%T/C)
Assay: Anticancer human tumor MDA-MB-231 cell line growth inhibition [IpAb];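 further: viability read after seven days of drug exposure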;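 on viability, T/C: 100% = DMSO vehicle control viability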
Details: for viability, T/C: stronger effect = lower value
How it was run: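 Combinations with ipatasertib or abemaciclib were tested on tumour spheroids holding HUVEC (25%) and MSC (15%) alongside 60% malignant cells. Top concentration was at or near clinical Cmax (10 microM if undefined), descending in half-log steps.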

[1] = curve of first compound, second compound 0.01 µM
[2] = curve of first compound, second compound 0.0316 µM
[3] = curve of first compound, second compound 0.1 µM
[4] = curve of first compound, second compound 0.316 µM
[5] = curve of first compound, second compound 1 µM
[6] = second compound 0.01 µM, first compound 0.0316 µM
[7] = second compound 0.01 µM, first compound 0.1 µM
[8] = second compound 0.01 µM, first compound 0.316 µM
[9] = second compound 0.01 µM, first compound 1 µM
[10] = second compound 0.0316 µM, first compound 0.0316 µM
[11] = second compound 0.0316 µM, first compound 0.1 µM
[12] = second compound 0.0316 µM, first compound 0.316 µM
[13] = second compound 0.0316 µM, first compound 1 µM
[14] = second compound 0.1 µM, first compound 0.0316 µM
[15] = second compound 0.1 µM, first compound 0.1 µM
[16] = second compound 0.1 µM, first compound 0.316 µM
[17] = second compound 0.1 µM, first compound 1 µM
[18] = second compound 0.1 µM, first compound 3.16 µM
[19] = second compound 0.1 µM, first compound 10 µM
[20] = second compound 0.316 µM, first compound 0.0316 µM
[21] = second compound 0.316 µM, first compound 0.1 µM
[22] = second compound 0.316 µM, first compound 0.316 µM
[23] = second compound 0.316 µM, first compound 1 µM
[24] = second compound 0.316 µM, first compound 3.16 µM
[25] = second compound 0.316 µM, first compound 10 µM
[26] = second compound 1 µM, first compound 0.0316 µM
[27] = second compound 1 µM, first compound 0.1 µM
[28] = second compound 1 µM, first compound 0.316 µM
[29] = second compound 1 µM, first compound 1 µM
[30] = second compound 1 µM, first compound 3.16 µM
[31] = second compound 1 µM, first compound 10 µM

SMILES: C=CCn1c(=O)c2cnc(Nc3ccc(N4CCN(C)CC4)cc3)nc2n1-c1cccc(C(C)(C)O)n1 + CCN1CCN(Cc2ccc(Nc3ncc(F)c(-c4cc(F)c5nc(C)n(C(C)C)c5c4)n3)nc2)CC1
- IC50 [1]: 239 nM
- IC50 [2]: 208 nM
- IC50 [3]: 177 nM
- IC50 [4]: 33.4 nM
- IC50 [5]: 325 nM
- viability, T/C [6]: 88.8%
- viability, T/C [7]: 85%
- viability, T/C [8]: 38.6%
- viability, T/C [9]: 20.3%
- viability, T/C (second compound 0.01 µM, first compound 3.16 µM): 15.4%
- viability, T/C (second compound 0.01 µM, first compound 10 µM): 20%
- viability, T/C [10]: 80.1%
- viability, T/C [11]: 69.3%
- viability, T/C [12]: 38.9%
- viability, T/C [13]: 23%
- viability, T/C (second compound 0.0316 µM, first compound 3.16 µM): 17.9%
- viability, T/C (second compound 0.0316 µM, first compound 10 µM): 20%
- viability, T/C [14]: 59.8%
- viability, T/C [15]: 56.8%
- viability, T/C [16]: 43.1%
- viability, T/C [17]: 26.1%
- viability, T/C [18]: 19.9%
- viability, T/C [19]: 21.2%
- viability, T/C [20]: 47.4%
- viability, T/C [21]: 48.7%
- viability, T/C [22]: 42.5%
- viability, T/C [23]: 32.9%
- viability, T/C [24]: 24.8%
- viability, T/C [25]: 26.4%
- viability, T/C [26]: 51.8%
- viability, T/C [27]: 51.7%
- viability, T/C [28]: 50.5%
- viability, T/C [29]: 48.5%
- viability, T/C [30]: 41%
- viability, T/C [31]: 36.5%

SMILES: COc1c(OCCCN2CCOCC2)ccc2c3n(c(=NC(=O)c4cnc(N)nc4)nc12)CCN3 + CCN1CCN(Cc2ccc(Nc3ncc(F)c(-c4cc(F)c5nc(C)n(C(C)C)c5c4)n3)nc2)CC1
- IC50 [1]: 24 nM
- IC50 [2]: 14.6 nM
- IC50 [3]: 4.68 nM
- IC50 [4]: < 3.16 nM
- IC50 [5]: < 3.16 nM
- viability, T/C (second compound 0.01 µM, first compound 0.00316 µM): 81.7%
- viability, T/C (second compound 0.01 µM, first compound 0.01 µM): 59%
- viability, T/C [6]: 50.2%
- viability, T/C [7]: 37.7%
- viability, T/C [8]: 31.7%
- viability, T/C [9]: 37.7%
- viability, T/C (second compound 0.0316 µM, first compound 0.00316 µM): 65.5%
- viability, T/C (second compound 0.0316 µM, first compound 0.01 µM): 53.1%
- viability, T/C [10]: 43.9%
- viability, T/C [11]: 34.1%
- viability, T/C [12]: 29.7%
- viability, T/C [13]: 38.5%
- viability, T/C (second compound 0.1 µM, first compound 0.00316 µM): 53.7%
- viability, T/C (second compound 0.1 µM, first compound 0.01 µM): 44.2%
- viability, T/C [14]: 36.6%
- viability, T/C [15]: 31.1%
- viability, T/C [16]: 29.1%
- viability, T/C [17]: 43.4%
- viability, T/C (second compound 0.316 µM, first compound 0.00316 µM): 46.4%
- viability, T/C (second compound 0.316 µM, first compound 0.01 µM): 41.6%
- viability, T/C [20]: 35.2%
- viability, T/C [21]: 31.7%
- viability, T/C [22]: 34.4%
- viability, T/C [23]: 67.5%
- viability, T/C (second compound 1 µM, first compound 0.00316 µM): 53%
- viability, T/C (second compound 1 µM, first compound 0.01 µM): 48.6%
- viability, T/C [26]: 46.8%
- viability, T/C [27]: 44.8%
- viability, T/C [28]: 55.1%
- viability, T/C [29]: 128%

SMILES: CC(C)NCC(C(=O)N1CCN(c2ncnc3c2C(C)CC3O)CC1)c1ccc(Cl)cc1 (stereo unspecified)
- viability, T/C (compound 0.1 µM): 95.4% [middle of 13 runs]
- viability, T/C (compound 0.316 µM): 84.7% [middle of 13 runs]
- viability, T/C (compound 1 µM): 70.5% [middle of 13 runs]
- viability, T/C (compound 3.16 µM): 54.9% [middle of 13 runs]
- viability, T/C (compound 10 µM): 39.5% [middle of 13 runs]
- IC50 (compound alone, run of 06/01/2021): 4.43 µM [middle of 13 runs]

SMILES: CC1(C)CCC(CN2CCN(c3ccc(C(=O)NS(=O)(=O)c4ccc(NCC5CCOCC5)c([N+](=O)[O-])c4)c(Oc4cnc5[nH]ccc5c4)c3)CC2)=C(c2ccc(Cl)cc2)C1 + CC(C)NCC(C(=O)N1CCN(c2ncnc3c2C(C)CC3O)CC1)c1ccc(Cl)cc1
- IC50 [3]: 5990 nM
- IC50 [4]: 5380 nM
- IC50 [5]: 4750 nM
- IC50 (curve of first compound, second compound 3.16 µM): 3680 nM
- IC50 (curve of first compound, second compound 10 µM): < 31.6 nM
- viability, T/C [14]: 99%
- viability, T/C [15]: 96.8%
- viability, T/C [16]: 103%
- viability, T/C [17]: 95.9%
- viability, T/C [18]: 96.9%
- viability, T/C [19]: 12.4%
- viability, T/C [20]: 86.2%
- viability, T/C [21]: 88.3%
- viability, T/C [22]: 93.7%
- viability, T/C [23]: 94.5%
- viability, T/C [24]: 86.1%
- viability, T/C [25]: 7.75%
- viability, T/C [26]: 75.9%
- viability, T/C [27]: 79.4%
- viability, T/C [28]: 75.4%
- viability, T/C [29]: 77.7%
- viability, T/C [30]: 71.2%
- viability, T/C [31]: 10.9%
- viability, T/C (second compound 3.16 µM, first compound 0.0316 µM): 60.8%
- viability, T/C (second compound 3.16 µM, first compound 0.1 µM): 57.2%
- viability, T/C (second compound 3.16 µM, first compound 0.316 µM): 59.4%
- viability, T/C (second compound 3.16 µM, first compound 1 µM): 60.1%
- viability, T/C (second compound 3.16 µM, first compound 3.16 µM): 56.5%
- viability, T/C (second compound 3.16 µM, first compound 10 µM): 7.09%
- viability, T/C (second compound 10 µM, first compound 0.0316 µM): 39.8%
- viability, T/C (second compound 10 µM, first compound 0.1 µM): 43%
- viability, T/C (second compound 10 µM, first compound 0.316 µM): 40.5%
- viability, T/C (second compound 10 µM, first compound 1 µM): 39.4%
- viability, T/C (second compound 10 µM, first compound 3.16 µM): 36.4%
- viability, T/C (second compound 10 µM, first compound 10 µM): 4.22%

From PubChem BioAssay AID2060328 (Molecular Pharmacology Branch, DTP, NCI, 2025)
